Measured values reported in patent US20240158446A1, “CYCLIC COMPOUND HAVING SELECTIVE INHIBITORY ACTION ON KRAS OVER HRAS AND NRAS” (CHUGAI SEIYAKU KABUSHIKI KAISHA, priority 2021, published 2024).

Assays:
[1] = target: GDP-bound KRAS wild-type protein (Homo sapiens, UniProt P01116); assay: Binding to KRAS by surface plasmon resonance (SPR), Single Cycle Kinetics; conditions: SPR Single Cycle Kinetics, GDP-bound KRAS wild-type protein, 1:1 binding model; read-out: KRAS KD
[2] = target: GDP-bound NRAS wild-type protein (Homo sapiens, UniProt P01111); assay: Binding to NRAS by surface plasmon resonance (SPR), Single Cycle Kinetics; conditions: SPR KD ratio NRAS/KRAS, class symbols
GDP-bound NRAS wild-type protein, sequence (P01111 whole entry): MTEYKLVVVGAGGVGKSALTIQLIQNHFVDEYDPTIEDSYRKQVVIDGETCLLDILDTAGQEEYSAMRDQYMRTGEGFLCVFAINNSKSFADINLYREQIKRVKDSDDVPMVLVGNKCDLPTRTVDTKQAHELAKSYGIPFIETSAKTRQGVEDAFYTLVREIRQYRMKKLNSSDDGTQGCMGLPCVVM

[3] = target: GDP-bound HRAS wild-type protein (Homo sapiens, UniProt P01112); assay: Binding to HRAS by surface plasmon resonance (SPR), Single Cycle Kinetics; conditions: SPR KD ratio HRAS/KRAS, class symbols
GDP-bound HRAS wild-type protein, sequence (P01112 whole entry): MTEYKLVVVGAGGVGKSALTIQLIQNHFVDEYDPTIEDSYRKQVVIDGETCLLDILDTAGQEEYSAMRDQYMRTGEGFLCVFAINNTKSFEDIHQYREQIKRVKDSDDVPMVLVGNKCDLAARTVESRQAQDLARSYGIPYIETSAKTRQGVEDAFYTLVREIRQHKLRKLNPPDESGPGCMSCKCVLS

GDP-bound KRAS wild-type protein, sequence (P01116 whole entry): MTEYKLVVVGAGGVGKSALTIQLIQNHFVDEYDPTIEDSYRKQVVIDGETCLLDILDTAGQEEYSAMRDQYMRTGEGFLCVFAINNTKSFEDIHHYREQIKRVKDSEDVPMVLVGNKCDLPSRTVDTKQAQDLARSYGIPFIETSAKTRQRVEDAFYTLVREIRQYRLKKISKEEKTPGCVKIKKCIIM

SMILES	Kd [1] [nM]	NRAS/KRAS (ratio of KD value with respect to GDP-bound NRAS wild-type protein to KD value with respect to KRAS) [2]	HRAS/KRAS (ratio of KD value with respect to GDP-bound HRAS wild-type protein to KD value with respect to KRAS) [3]
CCC[C@H]1C(=O)N[C@@H]([C@@H](C)CC)C(=O)N(C)CC(=O)N(C)[C@H]2C/C=C\CCN(C2=O)[C@@H](Cc2ccc(C)cc2)C(=O)N(C)CC(=O)N[C@@H](CCc2ccc(Cl)c(C(F)(F)F)c2)C(=O)N2C[C@H](OCC)C[C@H]2C(=O)NC2(CC(C)(C)C2)C(=O)N(C)[C@@H](C(CC)CC)C(=O)N(C)[C@H](C(=O)N(C)C)CC(=O)N1C [PP2787]	0.36	AA (a compound having 20 or more is denoted as AA)	A (a compound having 10 or more and less than 20 is denoted as A)
CCC[C@H]1C(=O)N[C@@H]([C@@H](C)CC)C(=O)N(C)CC(=O)N(C)[C@H]2C/C=C\CCN(C2=O)[C@@H](Cc2ccc(C(F)(F)F)cc2)C(=O)N(C)CC(=O)N[C@@H](CCc2ccc(Cl)c(OC)c2)C(=O)N2C[C@H](OCC)C[C@H]2C(=O)NC2(CC(C)(C)C2)C(=O)N(C)[C@@H](C2CCCC2)C(=O)N(C)[C@H](C(=O)N(C)C)CC(=O)N1C [PP2788]	0.45	A (a compound having 10 or more and less than 20 is denoted as A)	A (a compound having 10 or more and less than 20 is denoted as A)
CCC[C@H]1C(=O)N[C@@H]([C@@H](C)CC)C(=O)N(C)CC(=O)N(C)[C@H]2C/C=C\CCN(C2=O)[C@@H](Cc2ccc(C(F)(F)F)cc2)C(=O)N(C)CC(=O)N[C@@H](CCc2ccc(Cl)c(OC)c2)C(=O)N2C[C@H](OCC)C[C@H]2C(=O)NC2(CC(C)(C)C2)C(=O)N(C)[C@@H](C(CC)CC)C(=O)N(C)[C@H](C(=O)N(C)C)CC(=O)N1C [PP2789]	1	AA (a compound having 20 or more is denoted as AA)	A (a compound having 10 or more and less than 20 is denoted as A)
CCC[C@H]1C(=O)N[C@@H]([C@@H](C)CC)C(=O)N(C)CC(=O)N(C)[C@H]2C/C=C\CCN(C2=O)[C@@H](Cc2ccc(C)cc2)C(=O)N(C)CC(=O)N[C@@H](CCc2ccc(Cl)c(OC)c2)C(=O)N2C[C@H](OCC)C[C@H]2C(=O)NC2(CC(C)(C)C2)C(=O)N(C)[C@@H](C2CCCC2)C(=O)N(C)[C@H](C(=O)N(C)C)CC(=O)N1C [PP2790]	0.54	A (a compound having 10 or more and less than 20 is denoted as A)	A (a compound having 10 or more and less than 20 is denoted as A)
CCCC[C@H]1C(=O)N[C@@H]([C@@H](C)CC)C(=O)N(C)CC(=O)N(C)[C@H]2C/C=C\CCN(C2=O)[C@@H](Cc2ccc(C)cc2)C(=O)N(C)CC(=O)N[C@@H](CCc2cc(F)c(C(F)(F)F)c(F)c2)C(=O)N2C[C@H](OCC)C[C@H]2C(=O)NC2(CCC2)C(=O)N(C)[C@@H](C2CCCC2)C(=O)N(C)[C@H](C(=O)N(C)CC)CC(=O)N1C [PP2796]	0.12	A (a compound having 10 or more and less than 20 is denoted as A)	A (a compound having 10 or more and less than 20 is denoted as A)
CCCC[C@H]1C(=O)N[C@@H]([C@@H](C)CC)C(=O)N(C)CC(=O)N(C)[C@H]2C/C=C\CCN(C2=O)[C@@H](Cc2ccc(C)cc2)C(=O)N(C)CC(=O)N[C@@H](CCc2cc(F)c(C(F)(F)F)c(F)c2)C(=O)N2C[C@H](OCC)C[C@H]2C(=O)NC2(CCC2)C(=O)N(C)[C@@H](C2CCCC2)C(=O)N(C)[C@H](C(=O)N(C)C)CC(=O)N1C [PP2798]	0.075	A (a compound having 10 or more and less than 20 is denoted as A)	A (a compound having 10 or more and less than 20 is denoted as A)
CCC[C@H]1C(=O)N[C@@H]([C@@H](C)CC)C(=O)N(C2CC2)CC(=O)N(C)[C@H]2C/C=C\CCN(C2=O)[C@@H](Cc2ccc(C)cc2)C(=O)N(C)CC(=O)N[C@@H](CCc2ccc(C(F)(F)F)c(OC)c2)C(=O)N2C[C@H](OCC)C[C@H]2C(=O)NC2(CC(C)(C)C2)C(=O)N(C)[C@@H](CC2CC2)C(=O)N(C)[C@H](C(=O)N(C)C)CC(=O)N1C [PP2803]	5.9	A (a compound having 10 or more and less than 20 is denoted as A)	A (a compound having 10 or more and less than 20 is denoted as A)
CC[C@H](C)[C@@H]1NC(=O)[C@H](CC2CC2)N(C)C(=O)C[C@@H](C(=O)N(C)C)N(C)C(=O)[C@H](C2CCCC2)N(C)C(=O)C2(CC(C)(C)C2)NC(=O)[C@@H]2C[C@@H](F)CN2C(=O)[C@H](CCc2cc(F)c(C(F)(F)F)c(F)c2)NC(=O)CN(C)C(=O)[C@H](Cc2ccc(C)cc2)N2CC/C=C\C[C@@H](C2=O)N(C)C(=O)CN(C)C1=O [PP2804]	0.033	A (a compound having 10 or more and less than 20 is denoted as A)	A (a compound having 10 or more and less than 20 is denoted as A)
CCCC[C@H]1C(=O)N[C@@H]([C@@H](C)CC)C(=O)N(C)CC(=O)N(C)[C@H]2C/C=C\CCN(C2=O)[C@@H](Cc2ccc(C(F)(F)F)cc2)C(=O)N(C)CC(=O)N[C@@H](CCc2cc(F)c(C(F)(F)F)c(F)c2)C(=O)N2C[C@H](OCC)C[C@H]2C(=O)NC2(CC(C)(C)C2)C(=O)N(C)[C@@H](C2CCCC2)C(=O)N(C)[C@H](C(=O)N(C)CC)CC(=O)N1C [PP2806]	0.12	A (a compound having 10 or more and less than 20 is denoted as A)	A (a compound having 10 or more and less than 20 is denoted as A)
CCC[C@H]1C(=O)N[C@@H]([C@@H](C)CC)C(=O)N(C)CC(=O)N(C)[C@H]2C/C=C\CCN(C2=O)[C@@H](Cc2ccc(C(F)(F)F)cc2)C(=O)N(C)CC(=O)N[C@@H](CCc2cc(F)c(C(F)(F)F)c(F)c2)C(=O)N2C[C@H](OCC)C[C@H]2C(=O)NC2(CC(C)(C)C2)C(=O)N(C)[C@@H](CC2CC2)C(=O)N(C)[C@H](C(=O)N(C)C)CC(=O)N1C [PP2807]	0.34	AA (a compound having 20 or more is denoted as AA)	A (a compound having 10 or more and less than 20 is denoted as A)
CCCC[C@H]1C(=O)N[C@@H]([C@@H](C)CC)C(=O)N(C)CC(=O)N(C)[C@H]2C/C=C\CCN(C2=O)[C@@H](Cc2ccc(C)cc2)C(=O)N(C)CC(=O)N[C@@H](CCc2cc(F)c(C(F)(F)F)c(F)c2)C(=O)N2C[C@H](OCC)C[C@H]2C(=O)NC2(CC(C)(C)C2)C(=O)N(C)[C@@H](C2CCCC2)C(=O)N(C)[C@H](C(=O)N(C)CC)CC(=O)N1C [PP2808]	0.43	B (a compound having 3 or more and less than 10 is denoted as B)	B (a compound having 3 or more and less than 10 is denoted as B)
CCC[C@H]1C(=O)N[C@@H]([C@@H](C)CC)C(=O)N(C)CC(=O)N(C)[C@H]2C/C=C\CCN(C2=O)[C@@H](Cc2ccc(C(F)(F)F)cc2)C(=O)N(C)CC(=O)N[C@@H](CCc2ccc(C(F)(F)F)c(OC)c2)C(=O)N2C[C@H](OCC)C[C@H]2C(=O)NC2(CC(C)(C)C2)C(=O)N(C)[C@@H](CC2CC2)C(=O)N(C)[C@H](C(=O)N(C)C)CC(=O)N1C [PP2809]	0.9	A (a compound having 10 or more and less than 20 is denoted as A)	A (a compound having 10 or more and less than 20 is denoted as A)
CCC[C@H]1C(=O)N[C@@H]([C@@H](C)CC)C(=O)N(C)CC(=O)N(C)[C@H]2C/C=C\CCN(C2=O)[C@@H](Cc2ccc(C(F)(F)F)cc2)C(=O)N(C)CC(=O)N[C@@H](CCc2ccc(Cl)c(Cl)c2)C(=O)N2C[C@H](OCC)C[C@H]2C(=O)NC2(CC(C)(C)C2)C(=O)N(C)[C@@H](CC2CC2)C(=O)N(C)[C@H](C(=O)N(C)C)CC(=O)N1C [PP2811]	0.82	A (a compound having 10 or more and less than 20 is denoted as A)	A (a compound having 10 or more and less than 20 is denoted as A)
CCC[C@H]1C(=O)N[C@@H]([C@@H](C)CC)C(=O)N(C2CC2)CC(=O)N(C)[C@H]2C/C=C\CCN(C2=O)[C@@H](Cc2ccc(C(F)(F)F)cc2)C(=O)N(C)CC(=O)N[C@@H](CCc2cc(F)c(C(F)(F)F)c(F)c2)C(=O)N2C[C@H](OCC)C[C@H]2C(=O)NC2(CC(C)(C)C2)C(=O)N(C)[C@@H](CC2CC2)C(=O)N(C)[C@H](C(=O)N(C)C)CC(=O)N1C [PP2813]	1.7	AA (a compound having 20 or more is denoted as AA)	A (a compound having 10 or more and less than 20 is denoted as A)
CCC[C@H]1C(=O)N[C@@H]([C@@H](C)CC)C(=O)N(C2CC2)CC(=O)N(C)[C@H]2C/C=C\CCN(C2=O)[C@@H](Cc2ccc(C(F)(F)F)cc2)C(=O)N(C)CC(=O)N[C@@H](CCc2ccc(C(F)(F)F)c(OC)c2)C(=O)N2C[C@H](OCC)C[C@H]2C(=O)NC2(CC(C)(C)C2)C(=O)N(C)[C@@H](CC2CC2)C(=O)N(C)[C@H](C(=O)N(C)C)CC(=O)N1C [PP2815]	3.6	A (a compound having 10 or more and less than 20 is denoted as A)	A (a compound having 10 or more and less than 20 is denoted as A)
